Laboratory results taken from PMC5315062 (Oncology and Therapy, 2016).
Entries after “also recorded” stand apart in the source; their conditions may differ.

Key:
[1] = test system: BCR–ABL1; conditions: cited from earlier work
[2] = in vitro; large decrease in solubility with increasing pH; cited from earlier work
[3] = Toxicity and mortality after repeated intragastric administration in rats; type: in vivo
[4] = Tissue distribution in rats after i.g. 15.0 mg/kg; type: in vivo, Sprague–Dawley rats; conditions: for exposure in lung and thyroid: rat, 3, 9, 24 h
[5] = healthy subjects, meal within 30 min prior to single oral administration; cited from earlier work
[6] = Single-dose pharmacokinetics of ponatinib in rats; type: in vivo, Sprague–Dawley rats; conditions: rat; for half-life: T 1/2, rat; for Tmax: T max
[7] = Stability of ponatinib in rat bio-samples under different storage conditions; type: in vitro ADME; conditions: rat plasma, urine, feces; all RE (%) and RSD (%) below 15%
[8] = Single- versus multi-dose; conditions: rat
[9] = both, Sprague-Dawley, plasma, iv, 3 mg/kg
[10] = both, Sprague-Dawley, plasma, po, 7.5 mg/kg
[11] = both, Sprague-Dawley, plasma, po, 7.5 mg/kg, i.g. 7.5 mg/kg
[12] = both, Sprague-Dawley, plasma, po, 15 mg/kg
[13] = both, Sprague-Dawley, plasma, po, 15 mg/kg, i.g. 15.0 mg/kg
[14] = both, Sprague-Dawley, plasma, po, 30 mg/kg
[15] = both, Sprague-Dawley, plasma, po, 30 mg/kg, i.g. 30.0 mg/kg
[16] = both, Sprague-Dawley, in vivo, po, 3.75 mg/kg
[17] = i.g. 3.75 mg/kg once a day for 7 days (multi-dose)

Cc1ccc(C(=O)Nc2ccc(CN3CCN(C)CC3)c(C(F)(F)F)c2)cc1C#Cc1cnc2cccnn12 [ponatinib, Ponatinib]
concentration at which BCR–ABL1 is inhibited [1]: above 40 nmol/L | aqueous solubility [2]: pH-dependent | toxicity ([3]; 3.75 mg/kg consecutive administration for 7 days): Toxicity was displayed to some extent | mortality ([3]; repeated intragastric administration over 6 mg/kg): increased; also recorded: high mortality | distribution into tissues of the body ([4]; rat): distributed widely; also recorded: widely distributed | level in stomach, intestine and liver ([4]; rat): fairly low | exposure in lung and thyroid [4]: highly exposed; also recorded: highest levels | exposure in lung and thyroid ([4]; listed as Ponatinib): highest exposure | effect of a high- or low-fat meal on single-dose pharmacokinetics [5]: no effect | AUC(0-inf) [6, 9]: 2180 ± 462 ng·h/mL | MRT [6, 9]: 9.77 ± 0.66 h | clearance [6, 9]: 23.8 mL/min/kg | concentration at 5 min [6, 9]: 281 ± 129 ng/mL | half-life ([6]; both, Sprague-Dawley, plasma, iv, 3 mg/kg, i.v. 3.0 mg/kg): 6.17 ± 0.95 h | AUC(0-inf) [6, 10]: 1910 ± 353 ng·h/mL | Cmax [6, 10]: 104 ± 23.4 ng/mL | MRT [6, 10]: 16.4 ± 1.25 h | half-life [6, 11]: 10.9 ± 1.06 h | Tmax [6, 11]: 8.4 ± 2.19 h | AUC(0-inf) [6, 12]: 5030 ± 1010 ng·h/mL | Cmax [6, 12]: 285 ± 69 ng/mL | MRT [6, 12]: 16.7 ± 2.74 h | half-life [6, 13]: 9.7 ± 1.43 h | Tmax [6, 13]: 8.33 ± 0.82 h | AUC(0-inf) [6, 14]: 11600 ± 2890 ng·h/mL | Cmax [6, 14]: 638 ± 107 ng/mL | MRT [6, 14]: 16.5 ± 2.36 h | half-life [6, 15]: 9.66 ± 0.81 h | Tmax [6, 15]: 7.67 ± 0.82 h | CL ([6]; i.g. 7.5 mg/kg): 67 ± 11.3 mL/min/kg | V ([6]; i.g. 7.5 mg/kg): 63.55 ± 14.02 L/kg | CL ([6]; i.g. 15.0 mg/kg): 51.2 ± 9.33 mL/min/kg | V ([6]; i.g. 15.0 mg/kg): 42.85 ± 5.01 L/kg | CL ([6]; i.g. 30.0 mg/kg): 45.3 ± 12.7 mL/min/kg | V ([6]; i.g. 30.0 mg/kg): 37.78 ± 9.26 L/kg | exposure in plasma in relation to dose ([6]; i.g. 7.5, 15.0, 30.0 mg/kg): dose-dependent exposure | V ([6]; i.v. 3.0 mg/kg): 12.93 ± 4.37 L/kg | stability under various storage conditions [7]: stable | Cmax [8, 16]: 129 ± 37.6 ng/mL | Cmax at 7 days [8, 16]: 189 ± 55.7 ng/mL | Tmax [8, 16]: 10 ± 2.19 h | Tmax at 7 days [8, 16]: 6.67 ± 3.01 h | half-life [8, 16]: 11.3 ± 1.46 h | half-life at 7 days [8, 16]: 10.9 ± 1.56 h | CL [8, 17]: 11.7 ± 1.83 mL/min/kg | V [8, 17]: 10.85 ± 1.49 L/kg | CL ([8]; i.g. 3.75 mg/kg, single dose): 29.8 ± 10.2 mL/min/kg | V ([8]; i.g. 3.75 mg/kg, single dose): 28.91 ± 9.47 L/kg
